Assay results: the supplement of paper PMC11061612

Legend:
Assay in all cases: Bliss excess, mean over the matrix (fraction); higher = more synergy
[1] = system: COR-L279 (Small Cell Lung Carcinoma)
In short: (§1)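 Cell lines in DMEM/F12 or RPMI with 10% FBS were plated in 1536-well plates, held 24 hours at 37°C, 5% CO2, then given two-drug dose matrices for 72 hours (DMSO typically 0.2%). Viability was read by CellTiter-Glo 2.0 luminescence and scaled as inhibition from 0 (vehicle wells) to 1 (blank wells). Combination Emax is the second-highest inhibition in the matrix; Bliss excess is observed combination effect minus expected EA + EB − EA·EB, EA and EB being single-agent effects.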

[2] = system: DAN-G (Pancreatic Carcinoma)
In short: as §1

[3] = system: DMS-114 (Small Cell Lung Carcinoma)
In short: as §1

[4] = system: H9 (T-Cell Non-Hodgkin's Lymphoma)
In short: as §1

[5] = system: HCC1419 (Breast Carcinoma)
In short: as §1

[6] = system: JHH-4 (Hepatocellular Carcinoma)
In short: as §1

[7] = system: KU812 (Chronic Myelogenous Leukemia)
In short: as §1

[8] = system: KYSE-270 (Esophageal Squamous Cell Carcinoma)
In short: as §1

[9] = system: M059J (Glioblastoma)
In short: as §1

[10] = system: MN-60 (B-Lymphoblastic Leukemia)
In short: as §1

[11] = system: MOG-G-CCM (Low Grade Glioma)
In short: as §1

[12] = system: MOLM-13 (Acute Myeloid Leukemia)
In short: as §1

[13] = system: NCCIT (Other Solid Carcinomas)
In short: as §1

[14] = system: RD (Rhabdomyosarcoma)
In short: as §1

[15] = system: RPMI-8226 (Plasma Cell Myeloma)
In short: as §1

[16] = system: SJSA-1 (Osteosarcoma)
In short: as §1

[17] = system: SK-GT-4 (Esophageal Adenocarcinoma)
In short: as §1

[18] = system: SU-DHL-5 (B-Cell Non-Hodgkin's Lymphoma)
In short: as §1

[19] = system: T-T (Esophageal Squamous Cell Carcinoma)
In short: as §1

[20] = system: VMRC-RCZ (Kidney Carcinoma)
In short: as §1

SMILES | Bliss excess [1] | Bliss excess [2] | Bliss excess [3] | Bliss excess [4] | Bliss excess [5] | Bliss excess [6] | Bliss excess [7] | Bliss excess [8] | Bliss excess [9] | Bliss excess [10] | Bliss excess [11] | Bliss excess [12] | Bliss excess [13] | Bliss excess [14] | Bliss excess [15] | Bliss excess [16] | Bliss excess [17] | Bliss excess [18] | Bliss excess [19] | Bliss excess [20]
CCN(CCO)CCCOc1ccc2c(Nc3cc(CC(=O)Nc4cccc(F)c4)[nH]n3)ncnc2c1 [AZD2811] + O=C(c1cc(Cc2n[nH]c(=O)c3ccccc23)ccc1F)N1CCN(C(=O)C2CC2)CC1 [Olaparib] (first compound max 1 µM, 7x7, partner max 10 µM) | -0.0125 | 0.0092 | -0.0127 | -0.0965 | -0.0532 | -0.0293 | -0.0189 | 0.0212 | -0.0213 | -0.0206 | -0.041 | -0.0094 | -0.0195 | 0.0106 | -0.0137 | -0.0232 | 0.0123 | -0.0466 | -0.0073 | -0.0325
CN(CCO)CC[C@H](CSc1ccccc1)Nc1ccc(S(=O)(=O)NC(=O)c2ccc(N3CCC([C@@H](O)c4ccccc4-c4ccc(Cl)cc4)CC3)cc2)cc1S(=O)(=O)C(F)(F)F [AZD4320] + C1CN(CCC1(C(=O)N[C@@H](CCO)C2=CC=C(C=C2)Cl)N)C3=NC=NC4=C3C=CN4 [Capivasertib] (first compound max 1 µM, 7x7, partner max 3 µM) | 0.0721 | -0.0354 | -0.0066 | 0.0026 | 0.0421 | -0.0411 | 0.0154 | -0.0441 | -0.0113 | -0.0157 | -0.0525 | -0.0169 | 0.0224 | -0.0764 | 0.0027 | 0.0243 | -0.0345 | 0.0065 | -0.0171 | -0.0429
CN(CCO)CC[C@H](CSc1ccccc1)Nc1ccc(S(=O)(=O)NC(=O)c2ccc(N3CCC([C@@H](O)c4ccccc4-c4ccc(Cl)cc4)CC3)cc2)cc1S(=O)(=O)C(F)(F)F [AZD4320] + C=CCn1c(=O)c2cnc(Nc3ccc(N4CCN(C)CC4)cc3)nc2n1-c1cccc(C(C)(C)O)n1 [AZD1775] (first compound max 1 µM, partner max 1 µM) | 0.0798 | 0.0078 | 0.0074 | 0.0178 | -0.0722 | -0.0041 | 0.0788 | 0.0126 | 0.0448 | -0.0058 | 0.0069 | 0.0252 | 0.0045 | 0.0669 | 0.0467 | -0.0545 | -0.0438 | 0.0007 | 0.0409 | -0.0418
CN(CCO)CC[C@H](CSc1ccccc1)Nc1ccc(S(=O)(=O)NC(=O)c2ccc(N3CCC([C@@H](O)c4ccccc4-c4ccc(Cl)cc4)CC3)cc2)cc1S(=O)(=O)C(F)(F)F [AZD4320] + CCN(CCO)CCCOc1ccc2c(Nc3cc(CC(=O)Nc4cccc(F)c4)[nH]n3)ncnc2c1 [AZD2811] (first compound max 1 µM, 7x7, partner max 1 µM) | 0.051 | 0.0038 | -0.0398 | -0.0247 | -0.0664 | -0.0226 | -0.0082 | -0.0072 | -0.004 | -0.0231 | 0.0683 | 0.0171 | 0.0034 | 0.0335 | 0.0003 | -0.0059 | -0.0425 | -0.143 | 0.01 | -0.0508
CN(CCO)CC[C@H](CSc1ccccc1)Nc1ccc(S(=O)(=O)NC(=O)c2ccc(N3CCC([C@@H](O)c4ccccc4-c4ccc(Cl)cc4)CC3)cc2)cc1S(=O)(=O)C(F)(F)F [AZD4320] + CN(C)CCCOc1ccc(-c2ccc3ncc4c(c3c2)n(C2CCOCC2)c(=O)n4C)cn1 [AZD0156] (first compound max 1 µM, 7x7, partner max 1 µM) | 0.0041 | -0.0031 | -0.0466 | -0.0151 | -0.0645 | -0.016 | -0.0086 | -0.0152 | 0.0015 | 0.0032 | -0.0155 | -0.0649 | -0.0299 | -0.0172 | 0.0137 | 0.0377 | -0.067 | -0.066 | -0.0047 | -0.058
CN(CCO)CC[C@H](CSc1ccccc1)Nc1ccc(S(=O)(=O)NC(=O)c2ccc(N3CCC([C@@H](O)c4ccccc4-c4ccc(Cl)cc4)CC3)cc2)cc1S(=O)(=O)C(F)(F)F [AZD4320] + C[C@@H](Nc1cc(F)cc(F)c1)c1cc(C(=O)N(C)C)cc2c(=O)cc(N3CCOCC3)oc12 [AZD8186] (first compound max 1 µM, 7x7, partner max 3 µM) | 0.0217 | 0.0484 | -0.0096 | 0.063 | 0.0282 | 0.0282 | 0.0161 | 0.0225 | 0.0316 | -0.0104 | -0.018 | 0.0619 | 0.0346 | 0.0328 | 0.0151 | -0.0489 | -0.0206 | 0.0003 | 0.054 | -0.0096
CN(CCO)CC[C@H](CSc1ccccc1)Nc1ccc(S(=O)(=O)NC(=O)c2ccc(N3CCC([C@@H](O)c4ccccc4-c4ccc(Cl)cc4)CC3)cc2)cc1S(=O)(=O)C(F)(F)F [AZD4320] + Cn1cnc2c(F)c(Nc3ccc(Br)cc3Cl)c(C(=O)NOCCO)cc21 [Selumetinib] (first compound max 1 µM, 7x7, partner max 3 µM) | -0.0029 | 0.04 | 0.0226 | -0.0113 | -0.0211 | -0.0091 | 0.0375 | 0.0148 | -0.0289 | 0.0026 | -0.136 | 0.0296 | -0.0045 | 0.0308 | 0.0202 | 0.0413 | 0.0128 | 0.0368 | 0.0564 | -0.0195
COc1nnc2ccc(N3CCC(c4ccc(OCCN5CCN(C)C(=O)[C@H]5C)cc4)CC3)nn12 [AZD5153] + C=CCn1c(=O)c2cnc(Nc3ccc(N4CCN(C)CC4)cc3)nc2n1-c1cccc(C(C)(C)O)n1 [AZD1775] (first compound max 1 µM, partner max 1 µM) | -0.0192 | -0.0496 | -0.0367 | -0.0271 | -0.0724 | 0.0205 | -0.0632 | -0.067 | -0.106 | -0.067 | -0.0646 | -0.0225 | -0.0858 | -0.0171 | -0.0059 | -0.0313 | -0.0369 | 0.0156 | -0.029 | -0.0287
COc1nnc2ccc(N3CCC(c4ccc(OCCN5CCN(C)C(=O)[C@H]5C)cc4)CC3)nn12 [AZD5153] + CC1(C)CCC(CN2CCN(c3ccc(C(=O)NS(=O)(=O)c4ccc(NCC5CCOCC5)c([N+](=O)[O-])c4)c(Oc4cnc5[nH]ccc5c4)c3)CC2)=C(c2ccc(Cl)cc2)C1 [Venetoclax] (first compound max 1 µM, 7x7, partner max 1 µM) | -0.0945 | -0.0437 | -0.0732 | 0.0162 | -0.0499 | -0.0442 | -0.058 | -0.0185 | -0.0124 | -0.0708 | -0.0471 | 0.0179 | -0.0245 | -0.041 | -0.0035 | -0.0481 | -0.0444 | -0.0107 | -0.0319 | -0.0224
COc1nnc2ccc(N3CCC(c4ccc(OCCN5CCN(C)C(=O)[C@H]5C)cc4)CC3)nn12 [AZD5153] + CCN(CCO)CCCOc1ccc2c(Nc3cc(CC(=O)Nc4cccc(F)c4)[nH]n3)ncnc2c1 [AZD2811] (first compound max 1 µM, 7x7, partner max 1 µM) | -0.0201 | -0.0611 | -0.0127 | -0.0163 | -0.0414 | -0.0334 | -0.0011 | -0.054 | -0.0225 | -0.0224 | -0.052 | 0.0176 | -0.0288 | 0.0001 | -0.0116 | -0.0335 | -0.0421 | -0.0638 | -0.0284 | -0.0259
COc1nnc2ccc(N3CCC(c4ccc(OCCN5CCN(C)C(=O)[C@H]5C)cc4)CC3)nn12 [AZD5153] + C[C@@H]1COCCN1C2=NC(=NC(=C2)C3(CC3)[S@](=N)(=O)C)C4=C5C=CNC5=NC=C4 [AZD6738] (first compound max 1 µM, 7x7, partner max 10 µM) | -0.0233 | 0.0374 | 0.0184 | -0.0108 | -0.0517 | 0.134 | -0.065 | -0.0544 | -0.0647 | -0.0638 | -0.0378 | -0.0068 | -0.0702 | 0 | -0.0505 | -0.0398 | -0.0252 | 0.0107 | -0.0179 | 0.0926
COc1nnc2ccc(N3CCC(c4ccc(OCCN5CCN(C)C(=O)[C@H]5C)cc4)CC3)nn12 [AZD5153] + Cc1c2c(nn1C)CSCc1cc(n(C)n1)CSc1cc(c3ccccc3c1)OCCCc1c(C(=O)O)n(C)c3c-2c(Cl)ccc13 [AZD5991] (first compound max 1 µM, 7x7, partner max 1 µM) | 0.08 | -0.0163 | 0.029 | -0.0056 | -0.0411 | 0.0096 | -0.0007 | 0.0085 | -0.0072 | -0.0765 | 0.0248 | -0.0238 | -0.0196 | 0.0267 | -0.0253 | -0.0673 | -0.0304 | -0.0264 | -0.0157 | -0.022
COc1nnc2ccc(N3CCC(c4ccc(OCCN5CCN(C)C(=O)[C@H]5C)cc4)CC3)nn12 [AZD5153] + Cn1cnc2c(F)c(Nc3ccc(Br)cc3Cl)c(C(=O)NOCCO)cc21 [Selumetinib] (first compound max 1 µM, 7x7, partner max 10 µM) | -0.0778 | -0.0368 | 0.0443 | 0.0074 | 0.0238 | 0.0336 | 0.0272 | 0.0576 | -0.0635 | -0.0593 | -0.0198 | 0.0238 | -0.0845 | 0.0333 | 0.0745 | -0.0377 | -0.0158 | 0.0756 | 0.0702 | -0.0486
